Measurements: publication PMC6268492, “Synthesis and Antiangiogenic Activity of Novel Gambogic Acid Derivatives” (Molecules, 2012)
Where “and” joins values, the source holds several entries; their conditions need not be identical. Equal entries are not always repeated. Where two headings read alike, the source gives them in different places.

Assays:
[1] = test system: transgenic fli-1: enhanced GFP zebrafish embryos; assay: Zebrafish embryo assay: antiangiogenic effects; type: in vivo, zebrafish (Danio rerio); conditions: zebrafish embryos
Experimental: As stated previously, zebrafish is regarded as a powerful tool in the study of human diseases. […] In this study, all GA derivatives were incubated with the transgenic friend leukemia integration-1 (fli-1): enhanced GFP zebrafish embryos which carried a fli-1 promoter which can drive the expression of GFP in the whole endothelium.
Figure 1 Effects on neovascularization in zebrafish embryos. The transgenic fli-1: enhanced GFP zebrafish embryos in embryo water (0.2 g/L of instant ocean salt in distilled water) incubated with 1 μM of compounds at 6 h postfertilization (hpf) for 24 h. Zebrafish embryos were imaged (Imager.Z1, magnification: left, 40×; right, 100×).
Using transgenic fli-1: enhanced GFP zebrafish embryos, we investigated the effects of all compounds on angiogenesis. […] At about 6 h post fertilization (hpf), the embryos were sorted in the 6-well plate (six embryos/well), removing dead and unhealthy embryos. Then the embryos were treated with the indicated concentrations of compounds which were added into embryo water. After incubation for 24 or 48 h, the embryos were anesthetized using 0.05% 2-phenoxyethanol in embryo water, quantified and photographed.

[2] = test system: zebrafish embryos; assay: Zebrafish toxicity: heart rates; type: in vivo
Experimental: (§1) To investigate the toxicity of these four compounds, the heart rates and the mortality rates of zebrafish embryos were recorded (Table 2 and Table 3). The heart rate of zebrafish in the control group was 117 beats/min.
(§2) Using transgenic fli-1: enhanced GFP zebrafish embryos, we investigated the effects of all compounds on angiogenesis. Zebrafish embryos were generated by natural pairwise mating and raised at 28.5 °C in embryo water (0.2 g/L of Instant Ocean Salt in distilled water). At about 6 h post fertilization (hpf), the embryos were sorted in the 6-well plate (six embryos/well), removing dead and unhealthy embryos. Then the embryos were treated with the indicated concentrations of compounds which were added into embryo water. After incubation for 24 or 48 h, the embryos were anesthetized using 0.05% 2-phenoxyethanol in embryo water, quantified and photographed.

[3] = test system: zebrafish embryos; assay: Zebrafish toxicity: mortality rate; type: in vivo, zebrafish (Danio rerio)
Experimental: as §1, §2

[4] = test system: HUVECs; assay: Wound-healing migration assay; type: cell-based, Human; conditions: 1 μM, 24 h, control = 100%
Text: The migration of ECs is an important step of angiogenesis. The continuity of vascular ECs is the most important factor in preserving vessel wall function. Migration of ECs is essential to the recovery of this continuity after vascular ECs injury. […] As illustrated in Figure 3(I), the HUVECs migrated into the wound area actively (between the two white dash lines) under the compound-free condition (control).
Figure 3 Effects on the HUVECs migration. (I) HUVECs suspended in serum-free Dulbecco’s Modified Eagle Medium (DMEM) containing compounds (0.25 or 0.5 or 1 μM) for 24 h were photographed under a phase contrast microscopy (Olympus CKX41, magnification: 50×). Control was treated with serum-free DMEM which was consided as resulting in 100%; (II) Migration rates of compounds on the HUVECs. Data represented the mean standard deviation (SD) from three independent experiments. *** p < 0.005compared with control.
HUVECs were seeded in 6-well plates precoated with 0.1% gelatin, and grown overnight to confluence. The monolayer cells were wounded by scratching with 10 μL pipet tips and washed twice with serum-free DMEM (Dulbecco’s modified eagle medium) to remove the nonadherent cells and then replaced by serum-free DMEM with the indicated concentrations of compounds for 24 h. Images were taken at 0 h and 24 h independently after incubation at 37 °C, 5% CO2 environment. The migrated HUVECs were manually counted. The values were observed from four randomly selected fields.

[5] = test system: HUVECs; assay: Matrigel tube formation assay; type: cell-based, Human; conditions: Homo sapiens, HUVEC, 0.5 μM, 6 h, vs control, read-out: inhibitory rates of tube formation
Experimental: In the later stages of angiogenesis, tube formation of ECs is also an important process. Thus, a Matrigel tube formation assay was applied to assess the ability of HUVECs to form ECs vascular structures which is believed to be significant in new vessel formation.
Figure 4 Effects on the HUVECs tube formation. (I) HUVECs (1 × 10^4 cells) suspended in DMEM containing each compound (0.5 or 1 or 2 μM) were added to the Matrigel. Control was treated with DMEM alone. After incubation for 6 h at 37 °C, capillary networks were photographed and quantified (Olympus CKX41, magnification: 100×); (II) Rates of the HUVECs tube formation. The number of intact tubes was counted in five randomly chosen regions and expressed as the percentage of the control. The results were expressed as mean ±SD. ** p < 0.01; *** p < 0.005 compared with control.
Matrigel was dissolved at 4 °C overnight. Each well of prechilled 96-well plates was coated with 50 μL of Matrigel, incubated and solidified at 37 °C for 45 min. After removing the unsolidified fluid, HUVECs at the density of 1 × 10^4 were cultured in DMEM containing the indicated concentrations of compounds for 6 h. Controls were treated with the DMEM alone. Images were digitally captured and quantitatively analyzed (Olympus). The numbers and line lengths of the circular tubules formed by the cells were calculated manually. The values were observed from five randomly selected fields.

[6] = test system: A549; assay: MTT assay, cell proliferation; type: cell-based; conditions: Homo sapiens, 24 h, read-out: IC50, inhibition of cell proliferation
Summary of the method: (§3)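 Viability after a 24 h compound exposure (5 × 10^3 cells/well, 37 °C) was measured by MTT reduction over 3 h with a 570 nm read-out. IC50 values are concentrations that halve proliferation relative to untreated control.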

[7] = test system: HCT116; assay: MTT assay, cell proliferation; type: cell-based; conditions: Homo sapiens, HCT-116, 24 h, read-out: IC50, inhibition of cell proliferation
Summary of the method: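 Absorbance at 570 nm of DMSO-dissolved formazan was expressed as percentage growth relative to untreated cells, and IC50 was taken as the concentration giving 50% inhibition. Seeding was 5 × 10^3 cells per well, with 24 h compound treatment followed by 3 h MTT.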

[8] = test system: HeLa; assay: MTT assay, cell proliferation; type: cell-based; conditions: Homo sapiens, 24 h, read-out: IC50, inhibition of cell proliferation
Summary of the method: (§4)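 Cells (5 × 10^3/well) exposed to compound for 24 h at 37 °C, 5% CO2; HepG2, HeLa, LO2 in DMEM and K562 in RPMI 1640, each with 10% FBS. MTT added for 3 h, formazan dissolved in DMSO, absorbance at 570 nm. IC50 = concentration giving 50% inhibition of proliferation versus untreated control.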

[9] = test system: HepG2; assay: MTT assay, cell proliferation; type: cell-based; conditions: Homo sapiens, 24 h, read-out: IC50, inhibition of cell proliferation
Summary of the method: as §4

[10] = test system: K562; assay: MTT assay, cell proliferation; type: cell-based; conditions: Homo sapiens, 24 h, read-out: IC50, inhibition of cell proliferation
Summary of the method: as §4

[11] = test system: HUVEC; assay: MTT assay, cell proliferation; type: cell-based, Human; conditions: Homo sapiens, 24 h, read-out: IC50, inhibition of cell proliferation
Summary of the method: as §3

[12] = test system: LO2; assay: MTT assay, cytotoxicity; type: cell-based; conditions: Homo sapiens, L02, 24 h, read-out: IC50, inhibition of cell proliferation
Summary of the method: as §4

[13] = Danio rerio, read-out: antiangiogenic rates
[14] = Danio rerio, vs vehicle (0.05% DMSO), read-out: Anti-angiogenic phenotype

SMILES | inhibition in vivo at 1 µM [1, 13] | inhibition in vivo at 1 µM [1, 14] | Mortality rates ([3]; 1 μM, zebrafish) | Mortality rates ([3]; 2.5 μM, zebrafish) | Mortality rates ([3]; 10 μM, zebrafish) | inhibition at 0.5 µM [5] | IC50 [6] | IC50 [7] | IC50 [8] | IC50 [9] | IC50 [10] | IC50 [11] | IC50 [12] | other results
CC(C)=CCC[C@]1(C)C=Cc2c(O)c3c(c(CC=C(C)C)c2O1)O[C@]12C(=C[C@@H]4C[C@H]1C(C)(C)O[C@@]2(C/C=C(/C)C(=O)O)C4=O)C3=O [GA, Gambogic acid] | 25 to 50% | 25 to 50% | 20 ± 0.00% | 73.3% | 100% | 26.1% | 940 ± 30 nM | 590 ± 30 nM | 1140 ± 60 nM | 840 ± 40 nM | 490 ± 30 nM | 270 ± 10 nM | 890 ± 80 nM | Anti-angiogenic phenotype ([1]; 2.5 μM, vs vehicle (0.05% DMSO)): Dead ^b; Anti-angiogenic phenotype ([1]; 10 μM, vs vehicle (0.05% DMSO)): Dead; Heart rates of zebrafish ([2]; 1 μM, control 117 beats/min): 36 beats/min and 36 ± 3.32 beats/min; Heart rates of zebrafish ([2]; 2.5 μM, control 117 beats/min): Dead ^b; Heart rates of zebrafish ([2]; 10 μM, control 117 beats/min): Dead; Mortality rates ([3]; 2.5 μM, zebrafish, listed as A): 73.3 ± 5.77%; migratory rates [4]: 2.2%
CC(=O)Nc1ccc(OC(=O)/C(C)=C\CC23OC(C)(C)C4CC(C=C5C(=O)c6c(O)c7c(c(CC=C(C)C)c6OC542)OC(C)(CCC=C(C)C)C=C7)C3=O)cc1 (centres unmarked) [Compound 4, 4-Acetamidephenyl gambogate] | 25 to 50% | 25 to 50% | 0% | 6.7 ± 5.77 % | 20 ± 0.00 % | 43.5% | 950 ± 90 nM | 480 ± 40 nM | 1340 ± 40 nM | 1100 ± 60 nM | 410 ± 20 nM | 1170 ± 120 nM | 830 ± 30 nM | inhibition in vivo at 2.5 µM ([1]; Danio rerio, 2.5 μM, vs vehicle (0.05% DMSO), read-out: Anti-angiogenic phenotype): 50 to 75%; inhibition in vivo at 10 µM ([1]; Danio rerio, 10 μM, vs vehicle (0.05% DMSO), read-out: Anti-angiogenic phenotype): > 75%; Heart rates of zebrafish ([2]; transgenic fli-1:enhanced GFP (fli-1:EGFP) line, zebrafish, in vivo, 2.5 μM): 80 ± 5.31 beats/min; Heart rates of zebrafish ([2]; transgenic fli-1:enhanced GFP (fli-1:EGFP) line, zebrafish, in vivo, 10 μM): 54 ± 4.00 beats/min; Mortality rates ([3]; 2.5 µM and 10 µM, zebrafish embryos): less than 20%
